One assay has as its target T1, β4Gal-T2 (Homo sapiens, UniProt O60909).
T1 construct: The kinetic properties were determined with partially purified, secreted forms of the enzymes; made in house; host or cells: baculovirus; insect cells (Sf9 / High Five)
T1 sequence (O60909 37-372 limits assumed): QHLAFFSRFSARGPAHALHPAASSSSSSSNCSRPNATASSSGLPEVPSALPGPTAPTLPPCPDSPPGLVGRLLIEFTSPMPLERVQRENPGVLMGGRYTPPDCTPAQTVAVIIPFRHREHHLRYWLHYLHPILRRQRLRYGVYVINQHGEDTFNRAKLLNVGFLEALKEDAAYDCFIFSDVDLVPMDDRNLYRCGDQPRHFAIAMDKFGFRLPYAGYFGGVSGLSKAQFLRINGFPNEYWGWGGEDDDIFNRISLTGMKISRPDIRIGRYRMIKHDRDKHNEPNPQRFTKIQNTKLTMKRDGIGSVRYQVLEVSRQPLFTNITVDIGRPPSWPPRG
In words: Galactosyltransferase assay, recombinant β4Gal-T2, saccharide acceptors. It counts as biochemical. The method, then:
An expression construct (pAcGP67-β3Gal-T5-sol) designed to exclude the hydrophobic transmembrane segment and to encode amino acid residues 25-310, was prepared by PCR using P1 genomic DNA, and the primer pair EBER1300 sol (5′-[…]) (SEQ ID NO:3) and EBER1310 (5′-[…]) (SEQ ID NO:4) (FIG. 1), which included BamHI restriction sites. PCR product was cloned into the BamHI site of pAcGP67B (Pharmingen). An expression construct (pVL-β3Gal-T5-full) designed to encode the full coding sequence (from first ATG, FIG. 1) was prepared by PCR with P1 genomic DNA using the primer pair EBER1309 (5′-[…]) (SEQ ID NO:5) and EBER1310. This PCR product was cloned into the BamHI site of pVL1193 (Pharmingen). Both soluble and full length constructs were fully sequenced to confirm fidelity. Plasmids pAcGP67-β3GalT5-sol and pVL-β3Gal-T5-full were co-transfected with Baculo-Gold™ DNA (Pharmingen) as described previously (Bennett, E. P., Hassan, H. and Clausen, H. cDNA cloning and expression of a novel human UDP-N-acetyl-alpha-D-galactosamine. Polypeptide N-acetyl-galactosaminyl-transferase, GalNAc-T3. J. Biol. Chem. 271:17006-17012, 1996). Recombinant Baculo-virus were obtained after two successive amplifications in Sf9 cells grown in serum-containing medium, and titers of virus were estimated by titration in 24-well plates with monitoring of enzyme activities. […] Polypeptide N-acetyl-galactosaminyl-transferase, GalNAc-T3. J. Biol. Chem. 271:17006-17012, 1996). For large scale expression amplified virus was used to infect High Five™ cells grown in serum-free media (Invitrogen) in upright roller bottles shaking at 140 rpm and 27° C.
The kinetic properties were determined with partially purified, secreted forms of the enzymes. Semipurification of enzymes from serum-free medium of infected High-Five™ cells was performed by sequential Amberlite, DEAE-Sephacel and 5-Sepharose chromatography as described previously (Wandall, H. H., Hassan, H., Mirgorodskaya, E., et al. Substrate specificities of three. members of the human UDP-N-acetyl-alpha-D-galactosamine:Polypeptide Nacetylgalactosaminyltransferase family, GalNAc-T1, -T2, and -T3. J. Biol. Chem. 272:23503-23514, 1997). Comparisons of enzymes were performed relatively to the activity obtained with βGlcNAc-Bz1 (Tables II and III). Full length enzymes were assayed with 1% Triton CF54 homogenates of washed cells. Enzyme assays were performed in 50 μl total reaction mixtures containing 25 mM Cacodylate (pH 7.5), 10 mM MnCl2, 0.25% Triton X-100, 100 μM UDP-[^14C]-Gal (2,600 cpm/nmol) (Amersham), and varying concentrations of acceptor substrates (Sigma) (see Table I for structures). Reaction products were quantified by Dowex-1 chromatography. […] The transfer of Gal was evaluated after acid precipitation by filtration through Whatman GF/C glass fibre filters. […] Assays with glycolipid acceptors were conducted as previously described (Holmes, E. H. Characterization and membrane organization of beta 1-3- and beta 1-4-galactosyltransferases from human colonic adenocarcinoma cell lines Cob 205 and SW403: basis for preferential synthesis of type 1 chain lacto-series carbohydrate structures. Arch Biochem Biophys 270:630-646, 1989) in reaction mixtures containing 2.5 μmol HEPES buffer, pH 7.2, μmol MnCl2, 100 μg taurodeoxycholate or Triton CF-54, 20 μg acceptor glycolipid, 15 nmol UDP-[^14C]-galactose (13,000 cpm/nmol) and enzyme in a total volume of 100 μl. Conditions for incubation and product isolation were as previously described (Id.).

The target in another assay is T2, β3Gal-T2 (Homo sapiens, UniProt O43825).
T2 construct: The kinetic properties were determined with partially purified, secreted forms of the enzymes; made in house; host or cells: baculovirus; Sf9 / High Five insect cells, medium
T2 sequence (O43825 46-422 limits assumed): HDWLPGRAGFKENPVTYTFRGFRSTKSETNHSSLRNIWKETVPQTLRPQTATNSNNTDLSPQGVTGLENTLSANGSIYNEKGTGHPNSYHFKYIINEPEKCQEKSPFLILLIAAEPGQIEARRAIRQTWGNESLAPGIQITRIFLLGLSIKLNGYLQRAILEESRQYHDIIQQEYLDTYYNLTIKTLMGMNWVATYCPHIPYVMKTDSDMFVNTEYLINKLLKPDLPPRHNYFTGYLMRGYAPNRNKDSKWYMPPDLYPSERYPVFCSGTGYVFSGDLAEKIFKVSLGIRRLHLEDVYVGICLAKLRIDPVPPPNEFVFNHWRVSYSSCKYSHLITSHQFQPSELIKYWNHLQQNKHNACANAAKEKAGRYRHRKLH
In words: Galactosyltransferase assay, recombinant β3Gal-T2, saccharide acceptors. It counts as biochemical.

`CC(=O)N[C@H]1[C@H](OC[C@H]2O[C@H](Oc3ccc([N+](=O)[O-])cc3)[C@H](NC(C)=O)[C@@H](O[C@@H]3O[C@H](CO)[C@H](O)[C@H](O)[C@H]3O)[C@H]2O)O[C@H](CO)[C@@H](O)[C@@H]1O` [βGlcNAc(1,6)[βGal(1,3)]αGalNAc-p-Nph]: on β4Gal-T2, the “β4Gal-T2 activity, acceptor 0.2 mM” value is reported as 0.03 nmol/min and the “β4Gal-T2 ratio to value with βGlcNAc-Bzl, acceptor 0.2 mM” value is on record as “(1.0)”. Besides, at β3Gal-T2, the “β3Gal-T2 activity, acceptor 0.2 mM” value is listed as 0.0 nmol/min; the “β3Gal-T2 ratio to value with βGlcNAc-Bzl, acceptor 0.2 mM” value is “(0.0)”; the “β3Gal-T2 activity, acceptor 2 mM” value was 0.0 nmol/min; the “β3Gal-T2 ratio to value with βGlcNAc-Bzl, acceptor 2 mM” value is “(0.0)”.

Consider `CC(=O)N[C@H]1[C@H](OCc2ccccc2)O[C@H](CO)[C@@H](O)[C@@H]1O` [β-D-GlcNAc-Bzl], for which the “β4Gal-T2 activity with βGlcNAc-Bzl” value at β4Gal-T2 (β-D-GlcNAc-Bzl at 0.25 mM) worked out at 0.03 nmol/min. Also, on β3Gal-T2 (β-D-GlcNAc-Bzl at 80 mM), the β3Gal-T2 activity with β-D-GlcNAc-Bzl (Table III) is 0.04 nmol/min and the “β3Gal-T2 activity with βGlcNAc-Bzl” value is 0.04 nmol/min.

As for `CC(=O)NC1C(OC2C(O)C(CO)OC(Oc3ccc([N+](=O)[O-])cc3)C2NC(C)=O)OC(CO)C(O)C1O` [β-D-GlcNAc-(1–3)-α-D-GalNAc-p-Nph], at β4Gal-T2, the “β4Gal-T2 activity, acceptor 0.2 mM” value was determined as 0.2 nmol/min and the “β4Gal-T2 ratio to value with βGlcNAc-Bzl, acceptor 0.2 mM” value is on record as “(0.6)”. At β4Gal-T2 (2 mM), the “β4Gal-T2 activity, acceptor 2 mM” value is 0.01 nmol/min and the “β4Gal-T2 ratio to value with βGlcNAc-Bzl, acceptor 2 mM” value is recorded as “(0.3)”. For the same molecule, on β3Gal-T2, the “β3Gal-T2 activity, acceptor 0.2 mM” value turned out to be 0.0 nmol/min; the “β3Gal-T2 ratio to value with βGlcNAc-Bzl, acceptor 0.2 mM” value is on record as “(0.0)”; the “β3Gal-T2 activity, acceptor 2 mM” value is 0.0 nmol/min; the “β3Gal-T2 ratio to value with βGlcNAc-Bzl, acceptor 2 mM” value is reported as “(0.0)”.
